Test results published in patent US20240041832A1, “METHODS AND COMPOSITIONS FOR TREATING EYE DISEASES” (JENIVISION INC., priority 2021, published 2024).
Like-named read-outs stand apart in the source and are kept apart here.

Experiments:
[1] = Rabbit bio-disposition, eye-drop to one eye (OD) (Example 2); assay type: in vivo, New Zealand rabbits
Method: In order to verify that drug delivery of JV-DE1 was essentially confined to ocular redistribution other than via the blood circulation following contact of the eye-drop with the anterior segment ocular surface tissues, a monocular drug application study was performed. JV-DE1 was formulated in 2.4% CrEL and 0.2% glycerol in pH 7.6 TBS. CrEL is polyoxyl 35 castor oil. Other names for polyoxyl 35 castor oil include macrogolglycerol ricinoleate, PEG-35 castor oil, and […]. Briefly, for the bio-disposition experiment, JV-DE1 was administered to one eye (OD) via ocular instillation to said eye at a dose of 0.12 mg/eye. Blood samples (1 mL) and were collected at 0, 0.5, 2, 6, and 24 h after a single eye-drop ocular administration. At each of the above time points, one animal was euthanized after blood collection and selected eye tissue samples were collected from both eyes. Aqueous humor, bulbar conjunctiva, anterior sclera, posterior sclera (in the optic nerve exit region), retina, cornea, ciliary body, and iris were collected and weighed. The samples were then stored in an ultra-low temperature freezer. JV-DE1 concentrations in the samples were subsequently determined by the LC-MS/MS method.
JV-DE1 was widely distributed in the ocular tissues of the eye (OD) that received the compound. The concentration of JV-DE1 in ocular tissue levels were well-maintained over an 8 hour period post-dosing but had declined by 24 hours. The cornea, anterior sclera, and bulbar conjunctiva had the highest levels of JV-DE1 in the treated eye, which was about 100-fold greater than the JV-DE1 levels in the ciliary body/iris, posterior sclera, and retina. The most significant finding was the unexpected level of JV-DE1 in the vitreous humor. […] JV-DE1 levels in the retina of the contralateral, untreated eye were, however, one-tenth of those in the treated eye. […] Only about 10% achieved the retina by delivery from the bloodstream.

IP receptor = target: T1, IP receptor (Homo sapiens, UniProt P43119); settings: U.S. Pat. No. 9,321,745; cited from earlier work
T1 construct: VEGF release from human immune cells when macrophages were primed with TNFα; endogenous in cells; host or cells: human macrophages primed with TNFα
T1 sequence (P43119 whole entry): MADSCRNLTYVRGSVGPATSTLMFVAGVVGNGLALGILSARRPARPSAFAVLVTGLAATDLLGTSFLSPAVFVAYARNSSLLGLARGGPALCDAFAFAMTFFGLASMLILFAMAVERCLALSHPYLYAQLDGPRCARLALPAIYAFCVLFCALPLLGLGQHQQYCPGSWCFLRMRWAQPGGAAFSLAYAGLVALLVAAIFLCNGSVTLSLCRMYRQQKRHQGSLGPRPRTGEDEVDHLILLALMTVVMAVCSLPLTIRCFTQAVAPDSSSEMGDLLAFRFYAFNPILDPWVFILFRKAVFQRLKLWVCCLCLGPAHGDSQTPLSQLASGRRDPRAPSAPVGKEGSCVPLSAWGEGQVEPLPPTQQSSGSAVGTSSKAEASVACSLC

[2] = Biodistribution of JV-DE1 after single periorbital skin administration (Example 3); assay type: in vivo, cynomolgus monkeys; settings: for concentration at 3 h / concentration at 6 h / concentration at 0.5 h / concentration at 24 h: topical; for concentration at 3 h: 160.58 μg/right eye; for concentration at 6 h: 162.23 μg/right eye; for concentration at 0.5 h: 179.12 μg/right eye; for concentration at 24 h: 159.26 μg/right eye
Method: An additional experiment on JV-DE1 involving determining its bio-disposition following topical application to the periorbital skin that surrounds the anterior portion of the globe was performed.
JV-DE1 was formulated in medium chain triglyceride (MCT) oil. An amount of about 0.16 mg of JV-DE1 formulation was administered to one eye (OD) by circumferential topical application to the periorbital skin that surrounds the anterior portion of the globe. […] The following representative tissues were collected; upper eyelid, cornea, retina, and vitreous humor. JV-DE1 concentrations in the samples were subsequently determined by the LC-MS/MS method. The results are summarized below in Table 1

PAF receptor = PAF receptor (Homo sapiens, UniProt P25105); settings: Bley K R et al. (2006); cited from earlier work
Sequence of PAF receptor (P25105 whole entry): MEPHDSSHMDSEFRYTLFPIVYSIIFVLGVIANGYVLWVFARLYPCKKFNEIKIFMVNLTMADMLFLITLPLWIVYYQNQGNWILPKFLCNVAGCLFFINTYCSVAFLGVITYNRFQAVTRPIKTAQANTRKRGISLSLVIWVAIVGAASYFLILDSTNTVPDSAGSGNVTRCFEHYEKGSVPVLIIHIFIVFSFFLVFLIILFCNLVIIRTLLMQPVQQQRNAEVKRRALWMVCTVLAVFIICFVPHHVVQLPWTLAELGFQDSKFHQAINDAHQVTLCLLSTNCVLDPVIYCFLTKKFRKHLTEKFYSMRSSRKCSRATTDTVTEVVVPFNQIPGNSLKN

vascular IP receptor = vascular IP receptor (Homo sapiens, UniProt P43119); settings: Jones R L et al. (2006); cited from earlier work
Sequence of vascular IP receptor (P43119 whole entry): as the sequence (P43119 whole entry) above

[3] = Rabbit pharmacokinetics and ocular tissue distribution, eye-drop to both eyes (Example 1); assay type: in vivo, New Zealand rabbits
Method: A retinal bioavailability study was performed on 4,5-dihydro-N-[4-[[4-(1-methylethoxy) phenyl] methyl] phenyl]-1H-imadazol-2-amine (assigned the coded notation JV-DE1). This study provided an indication that the compound formulated in an eye-drop and administered bilaterally to the anterior ocular surface was bioavailable in the retina. This pharmacokinetics and ocular tissue distribution study of JV-DE1 was performed in New Zealand rabbits. Briefly, […] (male) received JV-DE1 via ocular instillation to both eyes at a dose of 0.12 mg/eye. Blood samples (1 mL) were collected at 0, 0.5, 2, 4, 8, and 24 h after single ocular administration to both eyes. At each time point, one animal was euthanized after blood collection and then eye tissue samples were collected from both eyes. Aqueous humor, bulbar conjunctiva, anterior sclera, posterior sclera (in the optic nerve exit region), retina, cornea, ciliary body, and iris were collected and weighed. The samples were then stored in an ultra-low temperature freezer. Drug concentrations in the samples were subsequently determined by the LC-MS/MS method. Results are shown in FIG. 2A (right eye) and FIG. 2B (left eye).
JV-DE1 was widely distributed in the ocular tissues, and with no meaningful difference between the left and right eye, since drug administration was bilateral. JV-DE1 ocular tissue levels were well-maintained over an 8 hour period post-dosing but had declined by 24 hours. The cornea, anterior sclera, and bulbar conjunctiva had the highest levels of JV-DE1 in both eyes, whereas JV-DE1 levels were lower in those structures located within the globe. The most significant finding was the unexpectedly high levels of JV-DE1 in the retina and the posterior sclera, which underlies and supports the retina.

[4] = 0.5 h, 179.120 μg/right eye periorbital skin
[5] = 3 h, 160.580 μg/right eye periorbital skin
[6] = 6 h, 162.230 μg/right eye periorbital skin
[7] = 24 h, 159.260 μg/right eye periorbital skin

Cmax ([1]; New Zealand, rabbit, plasma, topical or ocular, ocular instillation to one eye (OD), 0.12 mg/eye, at 0.5 hours post-dose): 0.95 ng/mL | retina level of contralateral untreated eye relative to treated eye ([1]; OS vs OD): one-tenth | share of drug reaching the retina by delivery from the bloodstream ([1]; monocular eye-drop): about 10% | share of drug reaching the retina by intra-global redistribution of the eye-drop ([1]; monocular eye-drop): 90% | time to complete clearance from plasma ([1]; ocular instillation to one eye (OD), 0.12 mg/eye): ≤ 24 h | levels in cornea, anterior sclera and bulbar conjunctiva relative to ciliary body/iris, posterior sclera and retina ([1]; treated eye (OD)): about 100 fold | % of administered dose, Right cornea [2, 4]: 0.00% | % of administered dose, Right retina [2, 4]: 0.09% | % of administered dose, Right upper eyelid [2, 4]: 0.64% | % of administered dose, Right vitreous humor [2, 4]: 4.67% | % of administered dose, Right cornea [2, 5]: 0.00% | % of administered dose, Right retina [2, 5]: 0.26% | % of administered dose, Right upper eyelid [2, 5]: 1.50% | % of administered dose, Right vitreous humor [2, 5]: 2.91% | % of administered dose, Right cornea [2, 6]: 0.00% | % of administered dose, Right retina [2, 6]: 0.25% | % of administered dose, Right upper eyelid [2, 6]: 0.48% | % of administered dose, Right vitreous humor [2, 6]: 3.13% | % of administered dose, Right cornea [2, 7]: 0.00% | % of administered dose, Right retina [2, 7]: 0.05% | % of administered dose, Right upper eyelid [2, 7]: 0.60% | % of administered dose, Right vitreous humor [2, 7]: 1.79% | Drug Concentration in Plasma ([2]; 24 h, 159.260 μg/right eye periorbital skin, animal 104, LLOQ 0.1 ng/ml): BLQ | drug level in retina at all tested time points ([2]; NIODP 165.30±4.65 μg/eye (OD)): greater than 1000 ng/g | drug level delivered to retina via NIODP ([2]; all tested time points): > 1 µg/g | plasma concentrations ([2]; all time points, LLOQ 0.1 ng/ml): less than 0.3 ng/ml | Cmax ([2]; cynomolgus monkey, plasma, topical or ocular, 0.16 mg, single dose monocular periorbital administration, over the 6 hour post-dose period): 0.13 to 0.26 ng/mL | concentration at 3 h ([2]; cynomolgus monkey, plasma, 3 h, 160.580 μg/right eye periorbital skin, animal 102, read-out: Drug Concentration in Plasma): 0.21 ng/mL | concentration at 6 h ([2]; cynomolgus monkey, plasma, 6 h, 162.230 μg/right eye periorbital skin, animal 103, read-out: Drug Concentration in Plasma): 0.26 ng/mL | concentration at 0.5 h ([2]; cynomolgus monkey, plasma, 0.5 h, 179.120 μg/right eye periorbital skin, animal 101, read-out: Drug Concentration in Plasma): 0.131 ng/mL | concentration at 24 h ([2]; cynomolgus monkey, right cornea, 24 h, 159.260 μg/right eye periorbital skin, read-out: Drug Concentration in Tissue, Right cornea): 5.5 ng/g | concentration at 3 h ([2]; cynomolgus monkey, right cornea, 3 h, 160.580 μg/right eye periorbital skin, read-out: Drug Concentration in Tissue, Right cornea): 27.9 ng/g | concentration at 6 h ([2]; cynomolgus monkey, right cornea, 6 h, 162.230 μg/right eye periorbital skin, read-out: Drug Concentration in Tissue, Right cornea): 45.5 ng/g | concentration at 0.5 h ([2]; cynomolgus monkey, right cornea, 0.5 h, 179.120 μg/right eye periorbital skin, read-out: Drug Concentration in Tissue, Right cornea): 39.6 ng/g | concentration at 24 h ([2]; cynomolgus monkey, right retina, 24 h, 159.260 μg/right eye periorbital skin, read-out: Drug Concentration in Tissue, Right retina): 1620 ng/g | concentration at 3 h ([2]; cynomolgus monkey, right retina, 3 h, 160.580 μg/right eye periorbital skin, read-out: Drug Concentration in Tissue, Right retina): 16700 ng/g | concentration at 6 h ([2]; cynomolgus monkey, right retina, 6 h, 162.230 μg/right eye periorbital skin, read-out: Drug Concentration in Tissue, Right retina): 23900 ng/g | concentration at 0.5 h ([2]; cynomolgus monkey, right retina, 0.5 h, 179.120 μg/right eye periorbital skin, read-out: Drug Concentration in Tissue, Right retina): 9300 ng/g | concentration at 24 h ([2]; cynomolgus monkey, right upper eyelid, 24 h, 159.260 μg/right eye periorbital skin, read-out: Drug Concentration in Tissue, Right upper eyelid): 11600 ng/g | concentration at 3 h ([2]; cynomolgus monkey, right upper eyelid, 3 h, 160.580 μg/right eye periorbital skin, read-out: Drug Concentration in Tissue, Right upper eyelid): 32500 ng/g | concentration at 6 h ([2]; cynomolgus monkey, right upper eyelid, 6 h, 162.230 μg/right eye periorbital skin, read-out: Drug Concentration in Tissue, Right upper eyelid): 7950 ng/g | concentration at 0.5 h ([2]; cynomolgus monkey, right upper eyelid, 0.5 h, 179.120 μg/right eye periorbital skin, read-out: Drug Concentration in Tissue, Right upper eyelid): 26500 ng/g | concentration at 24 h ([2]; cynomolgus monkey, right vitreous humor, 24 h, 159.260 μg/right eye periorbital skin, read-out: Drug Concentration in Tissue, Right vitreous humor): 19 ng/g | concentration at 3 h ([2]; cynomolgus monkey, right vitreous humor, 3 h, 160.580 μg/right eye periorbital skin, read-out: Drug Concentration in Tissue, Right vitreous humor): 7.79 ng/g | concentration at 6 h ([2]; cynomolgus monkey, right vitreous humor, 6 h, 162.230 μg/right eye periorbital skin, read-out: Drug Concentration in Tissue, Right vitreous humor): 3.9 ng/g | concentration at 0.5 h ([2]; cynomolgus monkey, right vitreous humor, 0.5 h, 179.120 μg/right eye periorbital skin, read-out: Drug Concentration in Tissue, Right vitreous humor): 15.2 ng/g | biodistribution via NIODP ([2]; periorbital skin): eyelid≥retina>>cornea≥vitreous humor | time to complete clearance from plasma ([2]; single dose monocular periorbital administration): ≤ 24 h | drug level delivered to the anterior chamber of the eye as an eye drop ([3]; eye drop): > 1 µg/g | retina distribution after eye-drop ([3]; eye-drop administration): less than 60 ng/g | Cmax ([3]; male, New Zealand, rabbit, plasma, topical or ocular, ocular instillation to both eyes, 0.12 mg/eye, at 0.5 hours post-dose): ~2 ng/mL | plasma clearance at 24 hours post dose ([3]; ocular instillation to both eyes, 0.12 mg/eye): good clearance
SMILES: CC(C)Oc1ccc(Cc2ccc(NC3=NCCN3)cc2)cc1 [JV-DE1, 4,5-dihydro-N-[4-[[4-(1-methylethoxy)phenyl]methyl]phenyl]-1H-imadazol-2-amine]
tissues with detectable compound in contralateral untreated eye (OS) ([1]; monocular eye-drop to OD): detected only in the cornea, posterior sclera, and retina | VEGF release induced by cicaprost in the presence of TNFα (IP receptor): abolished | pKi (PAF receptor): 7.9 | pA2 (vascular IP receptor): 8.2 | biodistribution dose gradient, eye drops ([3]; eye drops): cornea≥conjunctiva≥anterior sclera≈iris≥ciliary body≥posterior sclera≥aqueous humor≥retina
